From US12303545B2 (priority 2023, dated 2025)
Converted amounts (≈) assume the structure as drawn. Read-outs that look alike come from different tables or passages of the source. Numbered stars: 1 amine (or outer) side, 2 acyl side, 3 side chain; on linkers, the order of the positions; unused ones are H or OH. Bridge positions count the residues as written; N and C are the ends. Ends that are not written are not given here. Peptide text beside a SMILES is read from it. X1 = O=C(NC[*:1])NC[*:2]

Tests used:
BCG bacteria [1] = test: microbe, parasite or virus in culture; conditions: Mycobacterium tuberculosis variant bovis BCG
trypsin [2] = test: in vitro; conditions: isolated enzyme trypsin, pH 7.4
Method: (§1) A 4 mg/mL SAH1 solution and a 10 μg/mL trypsin solution each were prepared with PBS (pH 7.4) as a solvent. 250 μL of the trypsin solution was added to 250 μL of the SAH1 solution, and a reaction was conducted in an ice bath. A sample was collected at different time points after the reaction to determine the decomposition of SAH1 by RP-HPLC. RP-HPLC conditions were as follows: A C18 reversed-phase Bio-Rad analytical column was adopted: 250× 4 mm, a pore size: 30 nm, and a particle size: 7 μm. At 0 min to 40 min, linear gradient elution was conducted with 10% to 90% acetonitrile aqueous solutions, with 0.1% TFA (w/v) in both acetonitrile and water. A flow rate was 1.2 mL/min.
(§2) In addition, with the same method as above, the SAH1 aqueous solution was replaced with a 4 mg/mL BMAP-18 aqueous solution to detect the hydrolysis of BMAP-18 by trypsin.

in vitro = conditions: mouse
Method: A positive control well was set. The positive control well was the same as test wells except that the polypeptide SAH1 aqueous solution was replaced with a DMEM complete medium. After the incubation, 10 μL of a CCK-8 reaction solution (Beijing Solarbio) was added to each well, and the plate was further incubated at 37° C. for 2 h. Finally, the absorbance at 450 nm was detected with a microplate reader (Synersymx, Biotek). An OD value of the positive control well was BO, an OD value of a test well in which an antimicrobial peptide was added was B, and B/BO was called an inhibition rate. […] With a concentration of an antimicrobial peptide as an x-coordinate and an inhibition rate as a y-coordinate, a line chart was plotted, and IC50 was obtained through fitting.

trypsin [3] = conditions: trypsin 5 μg/mL
Method: as §1, §2

BCG bacteria [4] = system: BCG bacteria
BCG = assay type: cell-based, attenuated Mycobacterium bovis; conditions: treated as in Example 5

CO[C@H]1/C=C/O[C@@]2(C)Oc3c(C)c(O)c4c(O)c(c(/C=N/N5CCN(C)CC5)c(O)c4c3C2=O)NC(=O)/C(C)=C\C=C\[C@H](C)[C@H](O)[C@@H](C)[C@@H](O)[C@@H](C)[C@H](OC(C)=O)[C@@H]1C [Rifampicin]
MIC (BCG bacteria [1]): 400 µM (≈ 329 µg/mL)

GRFKRFRKKFKKLFKKLS-OH [BMAP-18, G-R-F-K-R-F-R-K-K-F-K-K-L-F-K-K-L-S-OH]
remaining at 0.25 h, 2 mg/mL (trypsin [2]): 17.8% | remaining at 0.5 h, 2 mg/mL (trypsin [2]): 0.01% | IC50 at 24 h (in vitro): 150 µM | Peak area (RP-HPLC) (trypsin [3]; reaction time 0 min): 254.43 | Polypeptide residue (trypsin [3]; reaction time 0 min): 100% | Peak area (RP-HPLC) (trypsin [3]; reaction time 15 min): 45.20 | Polypeptide residue (trypsin [3]; reaction time 15 min): 17.76% | Peak area (RP-HPLC) (trypsin [3]; reaction time 30 min): 0.02 | Polypeptide residue (trypsin [3]; reaction time 30 min): almost completely hydrolyzed | MIC (BCG bacteria [4]): 300 µM | antibacterial ability relative to SAH1 (BCG bacteria [4]): one twenty-fourth

NNC(=O)c1ccncc1 [Isoniazid]
MIC (BCG bacteria [1]): 800 µM (≈ 110 µg/mL)

CC(C)CC(NC(=O)C(CCCCN)NC(=O)C(CCCCN)NC(=O)C(Cc1ccccc1)NC(=O)C(CC(C)C)NC(=O)C(CCCCN)NC(=O)C(CCCCN)NC(=O)C(Cc1ccccc1)NC(=O)C(CCCCN)NC(=O)C1CSCNC(=O)NCSCC(NC(=O)C(Cc2ccccc2)NC(=O)C(CCCNC(=N)N)NC(=O)CN)C(=O)NC(CCCNC(=N)N)C(=O)NC(Cc2ccccc2)C(=O)NC(CCCNC(=N)N)C(=O)N1)C(=O)NC(CO)C(=O)O (stereo not drawn) [SAH1] (H-GRFCRFRCKFKKLFKKLS-OH; linker 4-8 via X1; configuration not given here)
remaining at 0.25 h, 2 mg/mL (trypsin [2]): 67.6% | remaining at 1 h, 2 mg/mL (trypsin [2]): 30.2% | IC50 at 24 h (in vitro): 300 µM | Peak area (RP-HPLC) (trypsin [3]; reaction time 0 min): 274.44 | Polypeptide residue (trypsin [3]; reaction time 0 min): 100% | Peak area (RP-HPLC) (trypsin [3]; reaction time 15 min): 185.49 | Polypeptide residue (trypsin [3]; reaction time 15 min): 67.59% | Peak area (RP-HPLC) (trypsin [3]; reaction time 30 min): 125.94 | Polypeptide residue (trypsin [3]; reaction time 30 min): 45.89% | Peak area (RP-HPLC) (trypsin [3]; reaction time 60 min): 82.92 | Polypeptide residue (trypsin [3]; reaction time 60 min): 30.21% | impact on cell membrane and intracellular structure of BCG (TEM) (BCG): largely missed, resulting in cavities and bacterial death | MIC (BCG bacteria [4]; BCG bacteria, 37° C. for 7 d, then resazurin 2 d, 7H9 medium): 12.5 µM (≈ 29.7 µg/mL)

CC[C@@H](CO)NCCN[C@@H](CC)CO [Ethambutol]
MIC (BCG bacteria [1]): 800 µM (≈ 163 µg/mL)
